Test results from US20180298332A1, “Microfluidic Model of the Blood Brain Barrier” (EMULATE, Inc., priority 2015, published 2018).

How the values were obtained:
iBMEC barrier function = test: TEER measurement on prototype TEER chips under flow; assay type: cell-based, human; conditions: chip under flow, then exposure to TNFa; FIG. 14A
Experimental: Cells were plated on tall channel PDMS chips equipped with incorporated gold electrodes on each channel (see FIG. 13A). Post seeding of BMECs, transendothelial electrical resistance was measured by connecting the electrodes to an EVOM2 voltohmmeter (see FIG. 13B). […] The “damaged” chip was a failure due to the TEER-Chips being a prototype.
Higher TEER values generally indicate a tighter barrier, which is typically desirable for a blood-brain barrier.

[1] = tested on: BMECs seeded on a microfluidic device; test: Paracellular permeability assay with Dextran-FITC on chip; assay type: cell-based, human; conditions: TNF-alpha exposure; Dextran-FITC 4 KDa added to bottom channel, measured in top channel; FIG. 14B
Source text: Brain microvascular endothelial cells (BMECs) constitute the blood-brain barrier (BBB) which forms a dynamic interface between the blood and the central nervous system (CNS) in vivo. This highly specialized interface restricts paracellular diffusion of fluids and solutes including chemicals, toxins and drugs from entering the brain. In this example, fluorescein sodium is used in a paracellular permeability assay of the BMECs seeded on a microfluidic device.
Albumin or Dextran conjugated to a fluorescent probe (e.g., FITC or TRITC) are frequently used to monitor changes in leakage, and thus barrier function. In this case, Dextran-FITC, a green fluorescent molecule of 4 KDa, or sodium fluorescein (a 0.3 KDa molecule), was added to the bottom (“blood side”) channel. Paracellular permeability was calculated by measuring the permeability of the fluorescent molecule on the Top (“brain side”) channel. […] FIG. 14B involves TNF-alpha exposure, but the readout is membrane permeability as measured by Dextran-FITC.

neurons seeded in chip = assay type: cell-based, human
[2] = tested on: cell monolayers with tight junctions; conditions: cited from earlier work

## TNFa
iBMEC barrier function
  iBMEC barrier function (TEER) after exposure of the chips: weakening of barrier function
[1]
  membrane permeability as measured by Dextran-FITC: increase in permeability

## NC1=N[C@H](O)[C@H]2[C@H]3O[C@]4(O)O[C@@H]([C@@H](O)[C@@]2(N1)[C@@H]4O)[C@]3(O)CO [tetrodotoxin]
Neurons seeded in chip
  neuronal calcium flux activity: ablates this activity

## Lucifer Yellow
[2]
  Permeability (Papp): 5 to 12 nm/s
